“Also recorded” adds a separate entry of the source.
Assays:
GAD1 and GAD11 genes = experiment: RT-PCR expression of GAD1 and GAD11 genes in response to benzoic acid; type: cell-based, A. niger; conditions: 8 mM benzoic acid for 5 h
Experimental: Total RNA was extracted from uninduced and benzoic acid-induced A. niger mycelia as described earlier, and approximately 1 μg was used to synthesize first strand cDNAs with the SuperScript First-strand Synthesis System for RT-PCR (Invitrogen, Carlsbad, Calif.). The reaction was carried out in the presence of 0.5 μg of an oligo(dT) primer, 0.5 mM dNTP mix, 5 mM MgCl2, 10 mM DTT, 1× RT buffer (20 mM Tris.HCl pH 8.4, 50 mM KCl), RNAseOUT™ RNAse inhibitor, and 50 U of SuperScript™ II Reverse Transcriptase. Tubes were incubated at 42° C. for 50 min, after which the reaction was terminated at 70° C. for 15 min. RNAse H was added, and tubes were incubated for an additional 20 min at 37° C. Double-stranded cDNAs were amplified by PCR using Red Taq DNA Polymerase (Sigma-Aldrich, St. Louis, Mo.), dNTP's, and gene specific primers: GAD1F (5′-[…]-3′, SEQ ID NO:30), GAD1R (5′-[…]-3′, SEQ ID NO:31), GAD11F (5′-[…]-3′, SEQ ID NO:32), and GAD11R (5′-[…]-3′, SEQ ID NO:33). PCR amplification consisted of a denaturation step at 94° C. for 5 min, followed by 30 cycles, each of denaturation at 94° C. for 45 sec, annealing at 56° C. for 30 sec, and extension at 72° C. for 1 min. A final extension step at 72° C. for 10 min was also included. Amplified cDNAs were separated on a 0.8% agarose gel containing EtBr, and bands were visualized under UV light.

bphA gene = experiment: RNA (Northern) blot of bphA gene transcription in mycelia; type: cell-based, Aspergillus niger
Experimental: The time course gene expression induction was examined by analyzing total RNA at different times after adding benzoic acid. Northern (RNA) blots were carried out using total RNA extracted from mycelia grown for different periods of time in the presence of benzoic acid. Initially, the fungus was inoculated in CM medium (Pontecorvo (1953) Adv. Genet. 5: 141-238) for 24 hours, transferred to benzoate-containing medium (0.1% w/v) for different times, and total RNA was extracted using the Rneasy Plant Total RNA kit (Qiagen Inc, Valencia, Calif.) according to the manufacturer's instructions. Total RNA was resolved on a formaldehyde-agarose gel and transferred to a Hybond-N nylon membrane (Amersham Life Sci. Inc, Arlington Heights, Ill.). Radiolabeled BPH probe was allowed to hybridize to the membrane, as described above. Northern blot methods were also carried out as recommended (Amersham).
Different benzoate concentrations and inducers were used to better characterize the inducibility of the bphA gene. Gene expression was assayed by Northern blots. Benzoate 4-hydroxylase activity is also assessed by enzymatic assays to confirm the inducibility at the transcriptional level described by Van Gorcom et al. ((1990) Mol. Gen. Genet. 223, 192-197). Inducibility is also verified by reverse transcription of mRNAs produced under induction conditions.
To verify the inducibility of the bphA gene by benzoic acid, A. niger was inoculated in complete medium and grown for 24 hours before being transferred to fresh medium containing 0.1% benzoic acid. Mycelia were harvested after different periods of induction, and total RNA was extracted.

bzuA = experiment: RNA blots of bzuA expression; type: cell-based, A. nidulans; conditions: benzoic acid in the media
Source text: On the other hand, while N. crassa also contains a bphA homolog, there is no current information available as to its response to benzoic acid.

O=C(O)c1ccccc1 [benzoic acid]
expression of GAD1 (GAD1 and GAD11 genes): expressed constitutively; also recorded: constitutive
expression of GAD11 (GAD1 and GAD11 genes): slightly downregulated; also recorded: slightly down-regulated
induction of transcription of the bphA gene (bphA gene; 8 mM inducer, RNA blot (FIG. 4)): induced
benzoic acid concentrations as low as ... induce transcription of the bphA gene (bphA gene; concentration curves): 0.8 mM
expression of bzuA (bzuA): upregulated
